From patent US9586993B2, “CD44v6-derived peptides for treating pancreatic cancer” (AMCURE GMBH, priority 2012, dated 2017)
“Also recorded” adds a separate entry of the source. No end group written: not given here. *: point of attachment. DOTA = O=C(O)CN1CCN(CC(=O)O)CCN(CC(=O)*)CCN(CC(=O)O)CC1; PEG2000 = polyethylene glycol, 2000 Da; Myristoyl = CCCCCCCCCCCCCC(=O)*

Legend:
[1] = tested on: BSp73ASs6 lung metastases; test: Apoptosis in established lung metastases (cleaved Caspase-3 and Caspase-8 staining); assay type: in vivo, rat; details: for apoptotic cells in lung metastases (cleaved Caspase 3): injection every second day from three weeks after cell injection
Description: (§1) 7 μm thick paraffin sections were deparaffinized and rehydrated. For P-Met staining antigen unmasking was achieved by boiling the slides in 1 mM EDTA pH 8.0 followed by incubation for 15 minutes at a sub-boiling temperature, for CD31 staining the sections were treated with Proteinase K (8 μg/ml) for 10 min at 37° C. For immunofluorescence staining of P-Met, unspecific binding was blocked with 5% goat serum (DAKO, Glostrup, Denmark) (diluted in 1×PBS/0.3% Triton X-100) for 60 minutes. In the case of immunohistochemistry, endogenous peroxidases were at first blocked with 3% H2O2 in PBS followed by incubation with biotin blocking system (Dako, Glostrup, Denmark) and then unspecific binding was inhibited by incubation with 5% FCS in PBS. The sections were incubated with the P-Met antibody (D26, dilution 1:50 in 1×PBS/1% BSA/0.3% Triton X-100), Met antibody (C-28, dilution 1:50), GFP antibody (sc-101525, dilution 1:50) or antibody (5 μg/ml) over night or VFF18 (5 μg/ml) o/n at 4° C. After washing in PBS the sections were incubated with Alexa Fluor R 546 goat anti-rabbit (in case of immunofluorescence P-Met and Met staining, dilution 1:500) or a biotinylated secondary antibody (for immunohistochemical stainings rabbit anti-rat antibody for VFF18 and CD31, goat anti-rabbit for P-Met, cleaved Caspase-3 and cleaved Caspase-8 and rabbit anti-mouse for GFP, dilution 1:500) for 45 minutes. For DAB (3,3′-diaminobenzidine) staining the sections were treated with a streptavidin-peroxidase conjugate (Dako, Glostrup, Denmark) and developed with DAB substrate system (3,3′-diaminobenzidine; Biozol, Eching, Germany) For immunofluorescence DAPI was used for nuclear staining.
One hypothesis for the disappearance of metastases is that the peptides induce apoptosis of CD44v6-expressing metastatic cells in the secondary organs. In order to test this hypothesis, the experiment described above using the BSp73ASs6 cells was repeated. The cells were injected subcutaneously in syngeneic rats and the tumor was allowed to develop for three weeks. After that time the animals were separated in two groups of 10 animals that were injected either with the specific rat CD44v6 peptide or with the control peptide (mouse) every second day. One day following each injection of the peptide, the lungs of one animal were removed and apoptosis was measured using an antibody that detects the cleaved form of Caspase 3. […] From these experiments, it is concluded that the CD44v6 peptide induces apoptosis of metastatic cells.
To discriminate whether the intrinsic pathway characterized by the release of mitochondrial proteins or the extrinsic pathway activated by ligand-bound death receptors for apoptosis was induced by the v6 peptide the expression of cleaved caspase-8 in the metastases treated with the v6 peptide was investigated. […] From these experiments we conclude that the CD44v6 peptide induces apoptosis of metastatic cells via the extrinsic apoptotic pathway.

BSp73ASs6 cells = test: Rat syngeneic model, subcutaneous BSp73ASs6 tumors, metastasis formation; assay type: in vivo; details: 200 μg per injection three times a week; for metastasis (axillary lymph nodes and lungs): intra-tumoral or intravenously, start one week after cell injection; for outgrowth of primary tumors: 28 days
Description: In the case of the rat syngeneic model, 1×10^6 pancreatic cells (BSp73AS and its transfectants) were subcutaneously injected into the right posterior flank of the animals. Tumors developed for four weeks. During this time period animals injected with BSp73ASs6 cells expressing Met-shRNA or control-shRNA received doxycycline in the drinking water. At the end of the experiment, primary tumors were isolated. Lungs and axillary lymph nodes were analyzed. The tissues were incubated for 24 h in a zinc-fixative (0.5 g calcium acetate, 5.0 g zinc acetate, 5.0 g zinc chloride, in 1 L 0.1 M Tris pH 7.4) and embedded in paraffin for further analysis. In case of peptide or antibody treatment tumors developed for one week before the first treatment. Where indicated, animals received 200 μg of peptide or antibody per injection three times per week for four weeks. Tumor growth was monitored weekly using a caliper Animals were killed at day 28 or 30 after start of the treatment.
For histomorphological analysis paraffin-embedded sections of lungs were stained with hematoxylin and eosin and periodic acid-Schiff (H&E or PAS). Serial sections of the whole tissue blocks were examined by analyzing slices every 20 μm; in each slice, the presence and the extension of the metastatic deposit was assessed, according to the procedure routinely used by pathologists to evaluate the presence of micrometastases.
Rat peptides had the sequences KEKWFENEWQGKNP (SEQ ID NO: 10) and NEWQG (SEQ ID NO: 11). BSp73ASs6 cells were subcutaneously injected into syngeneic rats and rat CD44v6 peptides of SEQ ID NO: 10 or SEQ ID NO: 11 (or mouse control peptides) or the CD44v6 antibody (or IgGs as a control) were injected intra-tumoral or intravenously three times a week. […] This is compatible with the fact that also BSp73AS cells or BSp73ASv1-10Δv6 cells can induce the formation of primary tumors similarly to the v6 transfectants.

[2] = tested on: L3.6p1 pancreatic carcinoma cells; test: Human orthotopic model, L3.6p1 cells in the pancreas of nude mice; assay type: in vivo, mouse; details: for outgrowth / size of the primary tumor: 20 μg per injection i.p. three times per week for three weeks; for outgrowth / size of the primary tumor / metastasis formation (liver): start one week after implantation; for metastasis formation (liver): 20 μg per injection i.p. three times per week
Description: In the case of the human orthotopic model, L3.6p1 pancreatic carcinoma cells (passage 24-26) were suspended in Hank's balanced salt solution (Invitrogen, Karlsruhe, Germany) after trypsinization. The cells were injected orthotopically in the pancreas of male nude mice as described (Bruns C J et al. (1999) Neoplasia 1(1):50-62). Two groups of 15 mice each were injected i.p. 7 days later with either the human v6 peptide respectively rat control peptide (20 μg). For all experiments described and depicted herein either the rat 14mer control peptide or the human 14mer peptide were used. All experiments were then repeated with the rat 5mer control peptide or the human 5mer peptide (N-R-W-H-E, SEQ ID NO: 2). […] The injection was repeated three times per week for 21 days. Two days after the last treatment the animals were killed.
as §1
The three CD44v6 specific compounds (v6 5mer, PEG840-v6 5mer and PEG2000-v6 5mer of human origin) and a control peptide were applied in three concentrations (2 μg, 20 μg, 200 μg per injection) three times per week i.p. for 4 weeks. One week before start of the treatment the L3.6p1 tumor cells were orthotopically implanted into nude mice.
Animals were implanted orthotopically with L3.6p1 cells. Tumor growth was allowed for one week before the treatment with the linear v6 14mer, the cyclic v6 8mer as well as the control peptide (rat v6 14mer) was started. All peptides were injected three times per week at a concentration of 0.2, 2 and 10 μg per injection for 3 weeks. At the end of the treatment animals were sacrificed.
A comparison of different CD44v6 peptide derivatives was performed in animals bearing a orthotopic L3.6p1 tumor. 10 groups of 5 animals each received a dose of 20 μg peptide per injection three times per week for 3 weeks with the compounds listed in Table 4. Three weeks after starting the treatment the animals were sacrificed and analyzed for macroscopic metastases and tumor volume.

[3] = tested on: Met activation and downstream signaling to ERK; test: HGF-induced activation of Met and ERK in L3.6p1 cells (western blot); assay type: cell-based, human; details: HGF 10 ng/ml
Description: Serum-starved cells (24 hours) were induced with the growth factor HGF (10 ng/mL) at 37° C. for 5 minutes. Where indicated, the cells were treated with peptides (100 ng/ml) prior to induction at 37° C. for 10 minutes (100 ng/mL CD44v6 peptide or control peptide). Following the induction with HGF, cells were washed with ice-cold phosphate-buffered saline (PBS). To detect activated Met and Erk, cells were lysed in sodium dodecyl sulfate (SDS)-sample buffer containing 100 mM dithiothreitol (DTT), boiled and subjected to western blot analysis using antibodies against phospho-Met and ERK. The loading controls were performed on the same blot after stripping (62.5 mM Tris, pH 6.8, 2% SDS, 0.8% DTT) by probing with the Met respectively ERK antibody. Blots were stained using the enhanced chemiluminescence system (Thermo Fisher Scientific, Schwerte, Germany). Bands in western blot analysis were quantified with the program Image J (National Institutes of Health).
To expand the studies to human pancreatic tumors, the highly metastatic human pancreatic carcinoma cells L3.6p1 (Bruns, et al. Neoplasia (1999), 1(1):50-62) were investigated. These cells originate from the […] cells that have been passaged several times in the liver and the pancreas, a step that rendered them more and more metastatic. It was confirmed that Met is dependent on CD44v6 for its activation and signaling in these cells (FIG. 4A). The L3.6p1 cells were treated with HGF in the presence or absence of a human v6 peptide of SEQ ID NO: 2 or SEQ ID NO:6 and Met activation and downstream signaling to ERK was measured.

[4] = listed as rat-specific peptide (ctrl peptide)

With “mouse control peptides: mouse CD44v6 peptide used as control in the rat system (WFQNGWQGKNP) [reference compound]” the “lung metastasis at day twenty-two” value ([1]; injection every second day) was “metastatic spreading was evident in the lungs”, the “apoptotic cells in lung metastases (cleaved Caspase 3)” value [1] was “No apoptosis at all was detected” and the “metastasis (axillary lymph nodes and lungs)” value (BSp73ASs6 cells) was “numerous metastases were detected in the lungs”.
In the case of “KEKWFENEWQGKNP [rat 14mer, rat CD44v6 14mer peptide; control in human systems]”, the “apoptosis twelve days after injection” value ([1]; cleaved Caspase 3) is reported as “less apoptosis was observed”, the “time of maximum of apoptosis” value ([1]; cleaved Caspase 3, injection every second day) is reported as “eight days after the first injection” and the “cleaved caspase-8 in lung metastases” value ([1]; injection every second day) is reported as “kinetic of activation of caspase-8 similar to the one obtained for caspase-3”. For the same substance, the “lung metastasis at day twenty-two” value ([1]; injection every second day) was “no metastasis could be detected anymore”, the “apoptotic cells in lung metastases (cleaved Caspase 3)” value [1] was “detected as early as three days after the first injection” and the “outgrowth / size of the primary tumor” value [2, 4] was “had no influence on metastasis formation or on growth of the primary tumor”. The “metastasis formation (liver)” value [2, 4] was “neither any influence on metastasis formation; also recorded: had no influence on metastasis formation or on growth of the primary tumor”, the “metastasis and micro-metastasis in lung sections (PAS and H&E staining)” value (BSp73ASs6 cells) was “neither metastasis nor micro-metastasis could be detected” and the “outgrowth of primary tumors” value (BSp73ASs6 cells) was “not influenced by either treatment”. The “metastasis (axillary lymph nodes and lungs)” value (BSp73ASs6 cells) was “completely inhibited metastasis” and the “inhibition of HGF-induced activation (phosphorylation) of Met and ERK” value [3] was “had no influence on receptor activation and signal transduction”.
For “Myr-KEQWFGNRWHEGYR (Myristoyl-KEQWFGNRWHEGYR) [Myristoyl-14-mer]”, the “outgrowth / size of the primary tumor” value [2] was “no inhibitory effect on tumor growth”.
With “PEG840-KEQWFGNRWHEGYR-OH [PEG840 14-mer]” the “outgrowth / size of the primary tumor” value [2] was “significant reduction in tumor growth” and the “metastasis formation (liver)” value [2] was “decrease of metastatic spreading”.
“NEWQG [rat 5mer, rat CD44v6 5mer peptide]” was tested, and the “results in the human orthotopic model compared with the 14mer peptides” value ([2]; 20 μg i.p. three times per week for 21 days) was “same results as for the 14mer peptides were observed”, the “metastasis and micro-metastasis in lung sections (PAS and H&E staining)” value (BSp73ASs6 cells) was “neither metastasis nor micro-metastasis could be detected” and the “outgrowth of primary tumors” value (BSp73ASs6 cells) was “not influenced by either treatment”. The “metastasis (axillary lymph nodes and lungs)” value (BSp73ASs6 cells) was “completely inhibited metastasis” and the “inhibition of HGF-induced activation (phosphorylation) of Met and ERK” value [3] was “had no influence on receptor activation and signal transduction”.
For “DOTA-keqwfGNRWHEGyr [DOTA CD44v6-14 [daa7]]”, the “metastasis formation (liver)” value [2] was “decrease of metastatic spreading”.
For “{DOTA}-KEQWFGNRWHEGYR [DOTA CD44v6-14 [r^14]]”, the “metastasis formation (liver)” value [2] was “complete inhibition of metastasis”.
In the case of “PEG2000-KEQWFGNRWHEGYR-OH [PEG2000 14-mer]”, the “outgrowth / size of the primary tumor” value [2] is reported as “strongest reduction of tumor size”, the “outgrowth / size of the primary tumor” value ([2]; listed as PEGylated 14mer (PEG 2000)) is reported as “significant reduction in tumor growth” and the “metastasis formation (liver)” value [2] is reported as “decrease of metastatic spreading”.
With DOTA-cy[KRWHE] [cycl 5 mer] the “outgrowth / size of the primary tumor” value [2] was “strongest reduction of tumor size” and the “metastasis formation (liver)” value [2] was “complete inhibition of metastasis”.
With “Myr-Y-cy[KGNRWHEG] (Myristoyl-YKGNRWHEG; also: cyclic, closure not given here, Myr-Tyr attached, site not given here) [Myr-Y-cycl 8 mer]” the “outgrowth / size of the primary tumor” value [2] was “significant reduction in tumor growth” and the “metastasis formation (liver)” value [2] was “decrease of metastatic spreading”.
For NRWHE [human 5mer, NRWHE], the “side effects in the animals” value ([2]; 200 μg per injection i.p. three times per week for 4 weeks) was “did not lead to side effects”.
